pKd: −log10 of the molar value.
Target: T1, CD133 (Homo sapiens, UniProt O43490)
T1 construct: gene PROM1
T1 sequence (O43490 20-865): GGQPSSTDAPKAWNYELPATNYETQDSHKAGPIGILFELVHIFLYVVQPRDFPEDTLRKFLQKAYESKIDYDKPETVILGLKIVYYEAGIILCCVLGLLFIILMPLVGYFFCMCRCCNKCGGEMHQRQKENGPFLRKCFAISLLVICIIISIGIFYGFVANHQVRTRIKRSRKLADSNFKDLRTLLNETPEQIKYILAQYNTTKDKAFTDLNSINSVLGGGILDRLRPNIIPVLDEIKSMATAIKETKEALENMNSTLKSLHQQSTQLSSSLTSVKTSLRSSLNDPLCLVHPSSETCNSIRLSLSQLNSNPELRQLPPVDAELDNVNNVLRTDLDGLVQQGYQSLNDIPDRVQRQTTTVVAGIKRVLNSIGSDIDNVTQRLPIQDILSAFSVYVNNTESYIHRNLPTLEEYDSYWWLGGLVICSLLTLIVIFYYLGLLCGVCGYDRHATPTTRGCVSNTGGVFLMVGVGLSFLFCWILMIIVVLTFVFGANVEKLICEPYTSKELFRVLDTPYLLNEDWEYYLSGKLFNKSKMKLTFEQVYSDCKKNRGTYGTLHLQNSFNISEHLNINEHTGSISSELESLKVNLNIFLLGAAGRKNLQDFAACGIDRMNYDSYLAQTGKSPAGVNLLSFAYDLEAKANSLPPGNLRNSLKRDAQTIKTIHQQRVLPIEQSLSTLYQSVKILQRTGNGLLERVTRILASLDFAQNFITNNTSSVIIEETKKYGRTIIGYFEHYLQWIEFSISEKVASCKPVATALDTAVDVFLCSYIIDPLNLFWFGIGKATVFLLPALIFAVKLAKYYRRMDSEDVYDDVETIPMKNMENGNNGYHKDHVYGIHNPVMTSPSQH
Experiment: surface plasmon resonance (SPR), single-site fit, […] PA
Assay type: binding

COc1ccc(C(=O)CCNC(C)=O)c(N)c1 [PA, pegaharoline A]
pKd: 5.14

From publication PMC10454575, “A Novel Aniline Derivative from Peganum harmala L. Promoted Apoptosis via Activating PI3K/AKT/mTOR-Mediated Autophagy in Non-Small Cell Lung Cancer Cells” (International Journal of Molecular Sciences, 2023)
